# Results as given in US20240226106A1, “INHIBITORS OF PLASMA KALLIKREIN” (SHIRE HUMAN GENETIC THERAPIES, INC., priority 2021, published 2024).
# What was measured:
# plasma kallikrein = molecular target: T1, plasma kallikrein (Homo sapiens, UniProt P03952); assay: Neat human plasma assay (fluorogenic peptide), contact pathway-activated plasma; type: biochemical; conditions: citrated human plasma, 10 nM human FXIIa activation, 100 μM PFR-AMC, room temperature; read-out: Human Plasma Assay: IC90
# T1 construct: from tissue; host or cells: sodium citrate collected human plasma
# Experimental: To analyze inhibition of plasma kallikrein in an ex vivo setting, the potency of compounds was measure in contact pathway-activated plasma assays. In a fluorogenic peptide substrate assay, test compounds dissolved in DMSO were added to sodium citrate collected human or rat plasma in a 96-well microplate. Alternatively, citrated plasma was collected from rats administered the compounds orally or by IV. 10 nM of human FXIIa (Enzyme Research Laboratories) diluted in PKa buffer (20 mM Tris-HCl, pH 7.5, 150 mM NaCl, 1 mM EDTA, 0.100 PEG-8000, and 0.1% Triton X-100) was added to the plasma, followed by the 100 μM of the profluorescent, synthetic plasma kallikrein substrate PFR-AMC (also diluted in PKa buffer). Final plasma concentration in the reaction was […]. Fluorescence was immediately monitored by excitation/emission wavelengths of 360 nm/480 nm respectively over a period of 5 minutes in a microplate reader. The resulting linear increase in fluorescence emission (reflecting PKa proteolysis of PFR-AMC substrate) was fit to extract a proteolytic rate (fluorescent units over time), and this rate was subsequently plotted against compound inhibitor concentration. Resulting plots were fit to a standard 4-parameter IC50/C90 equation to determine min/max values, IC50/90, and slope. All experimental steps were performed at room temperature.
# [1] = molecular target: human activated kallikrein enzyme (Homo sapiens, UniProt P03952); assay: Inhibition of human activated plasma kallikrein, fluorogenic peptide substrate (PFR-AMC), 500 pM enzyme format; type: biochemical; conditions: 500 pM activated kallikrein, 30 min preincubation, 10 min reaction, room temperature, read-out: Primary Dose Response Assay: Average EC50
# Summary of the method: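 Enzyme at 500 pM with […] PFR-AMC in 20 mM Tris pH 7.5, 1 mM EDTA, 150 mM NaCl, 0.1% PEG-400, 0.1% Triton X-100. Inhibitor preincubated 30 min, then 10 min reaction at room temperature; AMC fluorescence read at 380 nm excitation/460 nm emission.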
# Chain of human activated kallikrein enzyme (P03952 391-638 limits assumed): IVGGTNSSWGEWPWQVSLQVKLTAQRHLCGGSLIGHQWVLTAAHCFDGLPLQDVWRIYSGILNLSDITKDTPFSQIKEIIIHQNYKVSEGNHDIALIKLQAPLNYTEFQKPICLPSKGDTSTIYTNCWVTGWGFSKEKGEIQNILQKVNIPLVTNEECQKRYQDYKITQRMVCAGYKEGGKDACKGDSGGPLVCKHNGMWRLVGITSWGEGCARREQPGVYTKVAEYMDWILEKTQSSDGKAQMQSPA
# Chain of human activated kallikrein enzyme (P03952 20-390 partner limits assumed): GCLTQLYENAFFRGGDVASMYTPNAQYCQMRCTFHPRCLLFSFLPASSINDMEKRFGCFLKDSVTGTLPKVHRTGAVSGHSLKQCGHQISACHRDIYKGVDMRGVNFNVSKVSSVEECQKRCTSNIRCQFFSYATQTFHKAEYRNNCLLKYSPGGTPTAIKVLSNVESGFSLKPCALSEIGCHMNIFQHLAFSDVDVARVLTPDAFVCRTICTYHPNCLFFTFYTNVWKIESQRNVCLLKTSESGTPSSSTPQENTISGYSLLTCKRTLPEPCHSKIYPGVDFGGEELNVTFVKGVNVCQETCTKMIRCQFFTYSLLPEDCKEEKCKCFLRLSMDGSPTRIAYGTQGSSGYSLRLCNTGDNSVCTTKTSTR
# T1 sequence (P03952 391-638 limits assumed): as the sequence (P03952 391-638 limits assumed) above
# T1 sequence (P03952 20-390 partner limits assumed): as the sequence (P03952 20-390 partner limits assumed) above
SMILES,IC90 (plasma kallikrein),EC50 [1]
"O=C(Nc1nccc2nn(Cc3cn4nc(C5CC5)ccc4n3)cc12)[C@H]1C[C@@H]1c1cccc(Cl)c1 [Example 35, (1S,2S)-2-(3-chlorophenyl)-N-(2-((6-cyclopropylimidazo[1,2-b]pyridazin-2-yl)methyl)-2H-pyrazolo[4,3-c]pyridin-4-yl)cyclopropane-1-carboxamide]",0.5 to 5 µM,< 2.5 nM
"CN1CCN(c2cc(C3CC3)nn3cc(CNc4cc(NC(=O)[C@H]5C[C@@H]5c5cccc(Cl)c5)ncn4)nc23)CC1 [Example 39, (1S,2S)-2-(3-chlorophenyl)-N-(6-(((6-cyclopropyl-8-(4-methylpiperazin-1-yl)imidazo[1,2-b]pyridazin-2-yl)methyl)amino)pyrimidin-4-yl)cyclopropane-1-carboxamide]",5 to 65 µM,< 2.5 nM
"CN1CCN(c2cc(C3CC3)nn3cc(CNc4ccnc(NC(=O)[C@H]5C[C@@H]5c5cccc(Cl)c5)c4)nc23)CC1 [Example 40, (1S,2S)-2-(3-chlorophenyl)-N-(4-(((6-cyclopropyl-8-(4-methylpiperazin-1-yl)imidazo[1,2-b]pyridazin-2-yl)methyl)amino)pyridin-2-yl)cyclopropane-1-carboxamide]",0.5 to 5 µM,< 2.5 nM
"CN1CCN(c2cc(C3CC3)cn3nc(CNc4ccnc(NC(=O)[C@H]5C[C@@H]5c5cccc(Cl)c5)c4)nc23)CC1 [Example 45, (1S,2S)-2-(3-chlorophenyl)-N-(4-(((6-cyclopropyl-8-(4-methylpiperazin-1-yl)-[1,2,4]triazolo[1,5-a]pyridin-2-yl)methyl)amino)pyridin-2-yl)cyclopropane-1-carboxamide]",5 to 65 µM,< 2.5 nM
"O=C(Nc1cc(NCc2cn3nc(C4CC4)ccc3n2)ccn1)[C@H]1C[C@@H]1c1cccc(Cl)c1 [Example 46, (1S,2S)-2-(3-chlorophenyl)-N-(4-(((6-cyclopropylimidazo[1,2-b]pyridazin-2-yl)methyl)amino)pyridin-2-yl)cyclopropane-1-carboxamide]",5 to 65 µM,< 2.5 nM
"O=C(Nc1cc(NCc2cc3cc(C4CC4)cc(N4CCOC4=O)n3n2)ncn1)[C@H]1C[C@@H]1c1cccc(Cl)c1 [Example 49, (1S,2S)-2-(3-chlorophenyl)-N-(6-(((5-cyclopropyl-7-(2-oxooxazolidin-3-yl)pyrazolo[1,5-a]pyridin-2-yl)methyl)amino)pyrimidin-4-yl)cyclopropane-1-carboxamide]",0.5 to 5 µM,< 2.5 nM
"O=C(Nc1cc(NCc2cc3cc(C4CC4)cc(N4CCCC4=O)n3n2)ncn1)[C@H]1C[C@@H]1c1cccc(Cl)c1 [Example 52, (1S,2S)-2-(3-chlorophenyl)-N-(6-(((5-cyclopropyl-7-(2-oxopyrrolidin-1-yl)pyrazolo[1,5-a]pyridin-2-yl)methyl)amino)pyrimidin-4-yl)cyclopropane-1-carboxamide]",0.5 to 5 µM,2.5 to 25 nM
"CN1CCN(c2cc(C3CC3)cc3cc(CNc4cc(NC(=O)[C@H]5C[C@@H]5c5cccc(Cl)c5)ncn4)nn23)CC1 [Example 53, (1S,2S)-2-(3-chlorophenyl)-N-(6-(((5-cyclopropyl-7-(4-methylpiperazin-1-yl)pyrazolo[1,5-a]pyridin-2-yl)methyl)amino)pyrimidin-4-yl)cyclopropane-1-carboxamide]",0.5 to 5 µM,< 2.5 nM
"CN1CCN(c2cc(C3CC3)cc3cc(CNc4ccnc(NC(=O)[C@H]5C[C@@H]5c5cccc(Cl)c5)c4)nn23)CC1 [Example 54, (1S,2S)-2-(3-chlorophenyl)-N-(4-(((5-cyclopropyl-7-(4-methylpiperazin-1-yl)pyrazolo[1,5-a]pyridin-2-yl)methyl)amino)pyridin-2-yl)cyclopropane-1-carboxamide]",0.5 to 5 µM,< 2.5 nM
"O=C(Nc1cc(N2C[C@@H](O)C[C@@H]2c2cn3nc(C4CC4)ccc3n2)ncn1)[C@H]1C[C@@H]1c1cccc(Cl)c1 [Example 60, (1S,2S)-2-(3-chlorophenyl)-N-(6-((2R,4S)-2-(6-cyclopropylimidazo[1,2-b]pyridazin-2-yl)-4-hydroxypyrrolidin-1-yl)pyrimidin-4-yl)cyclopropane-1-carboxamide]",0.5 to 5 µM,2.5 to 25 nM
"O=C(Nc1cc(N2C[C@@H](O)C[C@@H]2c2cn3nc(C4CC4)ccc3n2)ncn1)[C@H]1C[C@@H]1c1cc(Cl)ccn1 [Example 61, (1S,2S)-2-(4-chloropyridin-2-yl)-N-(6-((2R,4S)-2-(6-cyclopropylimidazo[1,2-b]pyridazin-2-yl)-4-hydroxypyrrolidin-1-yl)pyrimidin-4-yl)cyclopropane-1-carboxamide]",0.5 to 5 µM,< 2.5 nM
"CN1C(=O)CN(c2cc(C3CC3)nn3cc(CNc4cc(NC(=O)[C@H]5C[C@@H]5c5cc(Cl)ccn5)ncn4)nc23)C1=O [Example 63, (1S,2S)-2-(4-chloropyridin-2-yl)-N-(6-(((6-cyclopropyl-8-(3-methyl-2,4-dioxoimidazolidin-1-yl)imidazo[1,2-b]pyridazin-2-yl)methyl)amino)pyrimidin-4-yl)cyclopropane-1-carboxamide]",0.5 to 5 µM,< 2.5 nM
"O=C(Nc1cc(NCc2cn3cc(C4CC4)cnc3n2)ncn1)[C@H]1C[C@@H]1c1cc(Cl)ccn1 [Example 66, (1S,2S)-2-(4-chloropyridin-2-yl)-N-(6-(((6-cyclopropylimidazo[1,2-a]pyrimidin-2-yl)methyl)amino)pyrimidin-4-yl)cyclopropane-1-carboxamide]",0.5 to 5 µM,< 2.5 nM
"Cc1ccnc([C@H]2C[C@@H]2C(=O)Nc2cc(N(C)Cc3cn4cc(C5CC5)cnc4n3)nc(C)n2)n1 [Example 90, (1S,2S)—N-(6-(((6-cyclopropylimidazo[1,2-a]pyrimidin-2-yl)methyl)(methyl)amino)-2-methylpyrimidin-4-yl)-2-(4-methylpyrimidin-2-yl)cyclopropane-1-carboxamide]",5 to 65 µM,< 2.5 nM
"Cc1ccnc([C@H]2C[C@@H]2C(=O)Nc2cc(OCc3cn4cc(C5CC5)cnc4n3)cnn2)n1 [Example 94, (1S,2S)—N-(5-((6-cyclopropylimidazo[1,2-a]pyrimidin-2-yl)methoxy)pyridazin-3-yl)-2-(4-methylpyrimidin-2-yl)cyclopropane-1-carboxamide]",< 0.5 µM,< 2.5 nM

# Now from value to compound:
IC90 (plasma kallikrein),EC50 [1],SMILES
< 0.5 µM,< 2.5 nM,"O=C(Nc1cc(N2C[C@@H](O)C[C@@H]2c2cn3cc(C4CC4)cnc3n2)ncn1)[C@H]1C[C@@H]1c1cc(Cl)ccn1 [Example 73, (1S,2S)-2-(4-chloropyridin-2-yl)-N-(6-((2R,4S)-2-(6-cyclopropylimidazo[1,2-a]pyrimidin-2-yl)-4-hydroxypyrrolidin-1-yl)pyrimidin-4-yl)cyclopropane-1-carboxamide]"
< 0.5 µM,< 2.5 nM,"Cc1ccnc([C@H]2C[C@@H]2C(=O)Nc2cc(N(C)Cc3cn4cc(C5CC5)nc(N5CC(=O)N(C)C5=O)c4n3)ncn2)n1 [Example 83, (1S,2S)—N-(6-(((6-cyclopropyl-8-(3-methyl-2,4-dioxoimidazolidin-1-yl)imidazo[1,2-a]pyrazin-2-yl)methyl)(methyl)amino)pyrimidin-4-yl)-2-(4-methylpyrimidin-2-yl)cyclopropane-1-carboxamide]"
< 0.5 µM,< 2.5 nM,"Cc1ccnc([C@H]2C[C@@H]2C(=O)Nc2cc(N(C)Cc3cn4cc(C5CC5)nc(N5CCCC5=O)c4n3)ncn2)n1 [Example 85, (1S,2S)—N-(6-(((6-cyclopropyl-8-(2-oxopyrrolidin-1-yl)imidazo[1,2-a]pyrazin-2-yl)methyl)(methyl)amino)pyrimidin-4-yl)-2-(4-methylpyrimidin-2-yl)cyclopropane-1-carboxamide]"
0.5 to 5 µM,< 2.5 nM,"Cc1ccnc([C@H]2C[C@@H]2C(=O)Nc2cc(N(C)Cc3nc4cc(C5CC5)cc(N5CC(=O)N(C)C5=O)c4[nH]3)nc(C)n2)n1 [Example 86, (S,2S)—N-(6-(((5-cyclopropyl-7-(3-methyl-2,4-dioxoimidazolidin-1-yl)-1H-benzo[d]imidazol-2-yl)methyl)(methyl)amino)-2-methylpyrimidin-4-yl)-2-(4-methylpyrimidin-2-yl)cyclopropane-1-carboxamide]"
0.5 to 5 µM,< 2.5 nM,"Cc1ccnc([C@H]2C[C@@H]2C(=O)Nc2nc(C)nc(OCc3cn4cc(C5CC5)nc(N5CC(=O)N(C)C5=O)c4n3)n2)n1 [Example 87, (1S,2S)—N-(4-((6-cyclopropyl-8-(3-methyl-2,4-dioxoimidazolidin-1-yl)imidazo[1,2-a]pyrazin-2-yl)methoxy)-6-methyl-1,3,5-triazin-2-yl)-2-(4-methylpyrimidin-2-yl)cyclopropane-1-carboxamide]"
< 0.5 µM,< 2.5 nM,"Cc1ccnc([C@H]2C[C@@H]2C(=O)Nc2cc(NCc3ccc4ncc(C5CC5)cc4c3)ncn2)n1 [Example 93, (1S,2S)—N-(6-(((3-cyclopropylquinolin-6-yl)methyl)amino)pyrimidin-4-yl)-2-(4-methylpyrimidin-2-yl)cyclopropane-1-carboxamide]"
